Patent US4260745A, “3-Halo cephalosporins” (Eli Lilly and Company, priority 1979, dated 1981)
Values after ≈ are worked out from the molar mass of the structure shown. Where two headings read alike, the source gives them in different places.

How the values were obtained:
[1] = test system: Bacillus subtilis; test: standard disc-plate method, zone of inhibition; type: cell-based; conditions: Table IV, read-out: Zone of Inhibition (diameter in mm); for zone of inhibition at 10 µg/mL: 0.01 mg./ml.; for zone of inhibition at 100 µg/mL: 0.1 mg./ml.; for zone of inhibition at 1000 µg/mL: 1.0 mg./ml.
Excerpt: (§1) The in vitro antimicrobial activity of the 3-halo cephalosporins is illustrated by the data in the following tables. Table I contains the antimicrobial activity for 7-[2-(2-thienyl)acetamido]-3-chloro-3-cephem-4-carboxylic acid obtained in the standard Disc-plate method. The numerical values are the diameter in millimeters of the zones of inhibition observed with the named organisms.
(§2) In Table IV below, the in vitro antimicrobial activity of 7-[2-(2-thienyl)acetamido]-3-bromo-3-cephem-4-carboxylic acid is presented for several illustrative microorganisms. The data presented were obtained in the standard disc-plate method with the numerical values recording the diameter in millimeters of the zones of inhibition observed with the named microorganisms.

[2] = test system: Escherichia coli; test: standard disc-plate method, zone of inhibition; type: cell-based; conditions: Table IV, read-out: Zone of Inhibition (diameter in mm); for zone of inhibition at 100 µg/mL: 0.1 mg./ml.; for zone of inhibition at 1000 µg/mL: 1.0 mg./ml.
Excerpt: as §1, §2

[3] = test system: Klebsiella pneumoniae; test: standard disc-plate method, zone of inhibition; type: cell-based; conditions: Table IV, read-out: Zone of Inhibition (diameter in mm)
Excerpt: as §1, §2

[4] = test system: Mycobacterium avium; test: standard disc-plate method, zone of inhibition; type: cell-based; conditions: Table IV, read-out: Zone of Inhibition (diameter in mm)
Excerpt: as §1, §2

[5] = test system: Proteus vulgaris; test: standard disc-plate method, zone of inhibition; type: cell-based; conditions: Table IV, read-out: Zone of Inhibition (diameter in mm)
Excerpt: as §1, §2

[6] = test system: Sarcina lutea; test: standard disc-plate method, zone of inhibition; type: cell-based; conditions: Micrococcus luteus, Table IV, read-out: Zone of Inhibition (diameter in mm)
Excerpt: as §1, §2

[7] = test system: Staphylococcus aureus; test: standard disc-plate method, zone of inhibition; type: cell-based; conditions: Table IV, read-out: Zone of Inhibition (diameter in mm)
Excerpt: as §1, §2

[8] = test system: Pseudomonas solanacearcum; test: standard disc-plate method, zone of inhibition; type: cell-based; design: key to Zone of Inhibition (diameter in mm): --: A dash indicates no observed zone of inhibition; hazy zone; conditions: Table IV
Excerpt: as §1, §2

[9] = test system: Salmonella gallinarum; test: standard disc-plate method, zone of inhibition; type: cell-based; design: key to Zone of Inhibition (diameter in mm): --: A dash indicates no observed zone of inhibition; hazy zone; conditions: Table IV
Excerpt: as §1, §2

[10] = test system: Pseudomonas aeruginosa; test: standard disc-plate method, zone of inhibition; type: cell-based; design: key: --: A dash indicates no observed zone of inhibition; hazy zone; conditions: Table IV
Excerpt: as §2

[11] = test system: Saccharomyces pastorianus; test: standard disc-plate method, zone of inhibition; type: cell-based; design: key: --: A dash indicates no observed zone of inhibition; hazy zone; conditions: Table IV
Excerpt: as §2

[12] = test system: Trichophyton mentagrophytes; test: standard disc-plate method, zone of inhibition; type: cell-based; design: key: --: A dash indicates no observed zone of inhibition; hazy zone; conditions: Table IV
Excerpt: as §2

[13] = test system: Penicillin Resistant Staphylococcus; test: Gradient Plate technique, MIC; type: cell-based; conditions: read-out: Minimum Inhibitory Concentration
Excerpt: The following Table II lists the minimum inhibitory concentration (MIC) for 7-[2-(2-thienyl)acetamido]-3-chloro-3-cephem-4-carboxylic acid against penicillin resistant Staphylococcus both in the presence of and absence of serum. The MIC values were obtained by the Gradient Plate technique carried out essentially as described by Bryson and Szybalski, Science, 116, 45 (1952). […]

[14] = test system: Methicillin resistant Staphylococcus; test: Gradient Plate technique, MIC; type: cell-based; conditions: Staphylococcus; Clinical Isolate X400 (methicillin resistant); No Serum; read-out: Minimum Inhibitory Concentration
[15] = test system: Aerobacter aerogenes; test: Gradient Plate technique, MIC; type: cell-based; conditions: Klebsiella aerogenes, read-out: Minimum Inhibitory Concentration
Excerpt: (§3) The following Table II lists the minimum inhibitory concentration (MIC) for 7-[2-(2-thienyl)acetamido]-3-chloro-3-cephem-4-carboxylic acid against penicillin resistant Staphylococcus both in the presence of and absence of serum. The MIC values were obtained by the Gradient Plate technique carried out essentially as described by Bryson and Szybalski, Science, 116, 45 (1952).
(§4) In Table III, below, the MIC values for the test compound of Tables I and II against representative gram-negative organisms is presented. The data were obtained by the Gradient Plate technique.
(§5) The minimum inhibitory concentrations for 7-[2-(2-thienyl)acetamido]-3-bromo-3-cephem-4-carboxylic acid against representative gram-negative bacteria is presented in Table VI. The data were obtained by the Gradient Plate Method.
(§6) Tables VII and VIII list the minimum inhibitory concentrations of the test compound effective against representative penicillin resistant Staphylococcus strains, while […] the MIC values obtained against representative gram-negative microorganisms. The data were obtained by the Gradient Plate method.

[16] = test system: Escherichia coli; test: Gradient Plate technique, MIC; type: cell-based; conditions: read-out: Minimum Inhibitory Concentration
Excerpt: as §3, §4, §5, §6

[17] = test system: Klebsiella pneumoniae; test: Gradient Plate technique, MIC; type: cell-based; conditions: read-out: Minimum Inhibitory Concentration
Excerpt: as §3, §4, §5, §6

[18] = test system: Pseudomonas aeruginosa; test: Gradient Plate technique, MIC; type: cell-based; conditions: read-out: Minimum Inhibitory Concentration
Excerpt: as §3, §4, §5, §6

[19] = test system: Salmonella heidelberg; test: Gradient Plate technique, MIC; type: cell-based; conditions: Salmonella enterica, read-out: Minimum Inhibitory Concentration
Excerpt: as §3, §4, §5, §6

[20] = test system: Serratia marcescens; test: Gradient Plate technique, MIC; type: cell-based; conditions: read-out: Minimum Inhibitory Concentration
Excerpt: as §3, §4, §5, §6

[21] = test system: Shigella sp.; test: Gradient Plate technique, MIC; type: cell-based; conditions: read-out: Minimum Inhibitory Concentration
Excerpt: as §3, §4, §5, §6

[22] = Electrometric titration; type: physicochemical; conditions: 66% aqueous dmf; only or first pKa; read-out: pKa
[23] = test system: Escherichia coli; test: standard disc-plate method, zone of inhibition; type: cell-based; design: key: --: A dash indicates no observed zone of inhibition; hazy zone; conditions: 0.01 mg./ml.; Table IV
Excerpt: as §1, §2

Work on `O=C(Cc1cccs1)NC1C(=O)N2C(C(=O)O)=C(Br)CS[C@H]12` (stereo partly shown) [7-[2-(2-Thienyl)acetamido]-3-bromo-3-cephem-4-carboxylic acid] yielded a zone of inhibition at 10 µg/mL ([1]; Synthetic medium) of 43 mm, a zone of inhibition at 10 µg/mL [1] of 23 mm and a zone of inhibition at 100 µg/mL ([1]; Synthetic medium) of 50 mm. It also gave a zone of inhibition at 100 µg/mL [1] of 38 mm, a zone of inhibition at 1000 µg/mL ([1]; Synthetic medium) of 60 mm and a zone of inhibition at 1000 µg/mL [1] of 37 mm. It also gave a zone of inhibition at 10 µg/mL ([2]; 0.01 mg./ml., Synthetic medium, hazy zone (h)) of 11 mm, a zone of inhibition at 100 µg/mL ([2]; Synthetic medium) of 18 mm and a zone of inhibition at 100 µg/mL [2] of 14 mm. The zone of inhibition at 1000 µg/mL ([2]; Synthetic medium) was 27 mm, the zone of inhibition at 1000 µg/mL [2] was 23 mm and the zone of inhibition at 10 µg/mL ([3]; 0.01 mg./ml.) was 11 mm. It also gave a zone of inhibition at 100 µg/mL ([3]; 0.1 mg./ml.) of 19 mm, a zone of inhibition at 1000 µg/mL ([3]; 1.0 mg./ml.) of 28 mm and a zone of inhibition at 10 µg/mL ([4]; 0.01 mg./ml., hazy zone (h)) of 33 mm. For the same molecule, the zone of inhibition at 100 µg/mL ([4]; 0.1 mg./ml., hazy zone (h)) was 42 mm, the zone of inhibition at 1000 µg/mL ([4]; 1.0 mg./ml.) was 23 mm and the zone of inhibition at 10 µg/mL ([5]; 0.01 mg./ml., hazy zone (h)) was 11 mm. It also gave a zone of inhibition at 100 µg/mL ([5]; 0.1 mg./ml.) of 20 mm, a zone of inhibition at 1000 µg/mL ([5]; 1.0 mg./ml.) of 28 mm and a zone of inhibition at 10 µg/mL ([6]; 0.01 mg./ml.) of 17 mm. For the same molecule, the zone of inhibition at 100 µg/mL ([6]; 0.1 mg./ml.) was 33 mm, the zone of inhibition at 1000 µg/mL ([6]; 1.0 mg./ml.) was 32 mm and the zone of inhibition at 10 µg/mL ([7]; 0.01 mg./ml.) was 22 mm. For the same molecule, the zone of inhibition at 100 µg/mL ([7]; 0.1 mg./ml.) was 25 mm, the zone of inhibition at 1000 µg/mL ([7]; 1.0 mg./ml.) was 27 mm and the “Zone of Inhibition (diameter in mm)” value ([8]; 0.01 mg./ml.) was “--”. For the same molecule, the zone of inhibition at 100 µg/mL ([8]; Pseudomonas, 0.1 mg./ml., hazy zone (h), read-out: Zone of Inhibition (diameter in mm)) was 20 mm, the zone of inhibition at 1000 µg/mL ([8]; Pseudomonas, 1.0 mg./ml., read-out: Zone of Inhibition (diameter in mm)) was 31 mm and the “Zone of Inhibition (diameter in mm)” value ([9]; 0.01 mg./ml.) was “--”. The zone of inhibition at 100 µg/mL ([9]; Salmonella enterica, GALLINARUM, 0.1 mg./ml., read-out: Zone of Inhibition (diameter in mm)) was 15 mm, the zone of inhibition at 1000 µg/mL ([9]; Salmonella enterica, GALLINARUM, 1.0 mg./ml., read-out: Zone of Inhibition (diameter in mm)) was 30 mm and the “Zone of Inhibition (diameter in mm)” value ([10]; 0.01 mg./ml.) was “--”. The “Zone of Inhibition (diameter in mm)” value ([10]; 0.1 mg./ml.) was “--”, the “Zone of Inhibition (diameter in mm)” value ([10]; 1.0 mg./ml.) was “--” and the “Zone of Inhibition (diameter in mm)” value ([11]; 0.01 mg./ml.) was “--”. The “Zone of Inhibition (diameter in mm)” value ([11]; 0.1 mg./ml.) was “--”, the “Zone of Inhibition (diameter in mm)” value ([11]; 1.0 mg./ml.) was “--” and the “Zone of Inhibition (diameter in mm)” value ([12]; 0.01 mg./ml.) was “--”. The “Zone of Inhibition (diameter in mm)” value ([12]; 0.1 mg./ml.) was “--”, the “Zone of Inhibition (diameter in mm)” value ([12]; 1.0 mg./ml.) was “--” and the MIC ([13]; Clinical Isolate V 32, No Serum) was 0.6 µg/mL (≈ 1.49 µM). For the same molecule, the MIC ([13]; Clinical Isolate V 41, No Serum) was 0.5 µg/mL (≈ 1.24 µM), the MIC ([13]; Clinical Isolate V 84, No Serum) was 0.4 µg/mL (≈ 0.992 µM) and the MIC ([13]; Clinical Isolate X 1.1, No Serum) was 0.3 µg/mL (≈ 0.744 µM). The MIC [14] was > 20 µg/mL, the MIC [15] was 1 µg/mL (≈ 2.48 µM) and the MIC [16] was 20.8 µg/mL (≈ 51.6 µM). For the same molecule, the MIC [17] was 1 µg/mL (≈ 2.48 µM), the MIC [18] was > 200 µg/mL and the MIC [19] was 1 µg/mL (≈ 2.48 µM). The MIC [20] was > 200 µg/mL, the MIC [21] was 19.8 µg/mL (≈ 49.1 µM) and the pKa [22] was 4.4. For the same molecule, the “Zone of Inhibition (diameter in mm)” value [23] was “--”.
